In patent US20040121460A1, “Differentiation of stem cells to pancreatic endocrine cells” (priority 2003, published 2004):
“Also recorded” adds a separate entry of the source.

Experiments:
[1] = system: ES cell-derived insulin-secreting islet clusters; experiment: Insulin secretion from ES cell-derived islet clusters, insulin ELISA; type: cell-based, murine; conditions: for insulin secretion in response to agonists (secretagogues): in the presence of low concentration (5 mM) of glucose
Experimental: A series of experiments were conducted to measure the kinetics and pharmacology of glucose-dependent insulin release. Insulin secretion was measured in Krebs-Ringer-bicarbonate buffer containing 120 mM NaCl, 5 mM KCl, 2.5 mM CaCl2, 1.1 mM MgCl2, 25 mM NaHCO3 and 0.1% bovine serum albumin at 37° C. Inhibitors of insulin secretion (nifedipine and diazoxide) were added to buffer during preincubation (30 min) and throughout the incubation period. For determination of total cellular insulin content, insulin was extracted from cells with acid ethanol (10% glacial acetic acid in absolute ethanol) overnight at 4° C., followed by cell sonication. Total cellular and secreted insulin was assayed using insulin ELISA kit (ALPCO, Windham, N.H.). Protein concentrations were determined using DC protein assay system (Bio-Rad, Hercules, Calif.).
To determine if the islet clusters utilize physiological glucose-mediated signaling pathways, the effect of several well-characterized agonists and antagonists of insulin secretion were examined. The mechanism by which glucose stimulates insulin secretion in vivo is complex. As outlined in FIG. 3B, transport of glucose into the cell, and its metabolism results in ATP production, an event which, in turn, leads to inhibition of ATP-dependent K^+ channels, cell membrane depolarization, opening of the voltage-dependent Ca^++ channels, and influx of extracellular Ca^++ into the cell. Additionally, intracellular Ca^++ can be elevated by release of Ca^++ from intracellular stores through other mechanisms. Elevation of free intracellular Ca^++ is coupled to multiple phosphorylation events modulated by protein kinase C (PKC) and protein kinase A (PKA) cascades, which ultimately lead to release of insulin from the cell (McClenaghan et al., J Mol. Med., 77:235, 1999).

ES cell cultures = experiment: LIF treatment of ES cell cultures at stage 2 (EB formation), immunostaining for EN-1, PDX-1, TuJ1, GFAP; type: cell-based
Experimental: FIG. 5 is a set of panels showing the neural and pancreatic differentiation of ES cells. FIG. 1A is a set of digital images showing the cells during the procedure for induction of midbrain dopaminergic neurons from ES cells as previous described (see WO 01/83715, herein incorporated by reference). Briefly, the ES cells were taken through 5 steps or stages. In stage 1 undifferentiated ES cells were cultured for 5 days in the presence of 15% fetal calf serum (FCS) on gelatin coated tissue culture dishes in the presence of LIF (1,400 U/ml). In stage 2 embryoid bodies (Ebs) were generated in the presence of FCS for 4 days in the presence or absence of LIF (1,000 U/ml.). In stage 3, the EBs were plated into ITSFn medium (Okabe et al., Mech. Dev. 59: 89-102, 1996) where over 10 days Nestin+ cells migrated from the cell aggregates. In stage 4 these Nestin+ cells were resuspended and expanded for 4 days in N2 medium containing bFGF, sonic hedgehog (Shh) and fibroblast growth factor-8 (FGF8). In stage 5 the medium was changed into N2 medium without bFGF, Shh or FGF8. These cells differentiated efficiently into neurons and astrocytes over a two week period. Embryoid bodies were generated in the presence (LIF+) or absence (LIF−) of LIF (1000 U/ml) and differentiated. Double-immunostaining for TuJ1/GFAP (upper panels, day 8 in stage 5) and PDX-1/En-1 (lower panels, day 3 in stage 4). LIF treatment in stage 2 (EB formation) increases the neuronal (TuJ1+cells, light grey) and decreases the astrocytic (GFAP+, dark grey) population. […] FIG. 5C is a bar graph showing that the yield of En-1+ and PDX-1+ cells is expressed as a percentage of total cells at stage 4.
The methods disclosed herein include five stages: (1) expansion of ES cells (2) generation of EB (3) selection for CNS precursor cells (4) expansion of pancreatic (versus central nervous system (CNS)) precursor cells, and (5) differentiation of pancreatic endocrine cells (versus differentiation of neuronal cells). Expansion of ES cells and generation of EB was performed as disclosed herein. EB were cultured in DMEM/15% serum (ES medium) with LIF (1000 units (U)/ml) for 4 days with changing medium every 2 day. After 4 days, EBs were transferred to a tissue culture dish cultured in ITS medium containing fibronectin for 10-12 days. EBs which were kept in absence of LIF in stage II were phenotypically different than EB cultured in the presence of LIF in stage II. In stage 1V, ES-derived CNS precursor were cultured in N2 medium in the presence of bFGF (20 ng/ml) and Shh (500 ng/ml) and FGF8 (100 ng/ml) for 4 days and after withdrawal of bFGF/SHH/FGF8, differentiated them for 10-12 day in N2 medium with ascorbic acid. Specifically, EB cultured in the absence of LIF were spread out in stage III. EBs which were treated with LIF maintained a round shape and CNS precursor cells migrated from attaching point of EB in dishes. Therefore, a selection for CNS precursor was accomplished by culturing in the […] of LIF.

[2] = at stage 4, LIF at stage 2 (EB formation)

CC(C)Cn1c(=O)n(C)c(=O)c2[nH]cnc21 [IBMX, 3-isobutil-1-methylxanthine]
insulin secretion in response to agonists (secretagogues) [1]: stimulated insulin secretion

C[N+](C)(C)CCOC(N)=O [carbachol]
insulin secretion in response to agonists (secretagogues) [1]: stimulated insulin secretion

CC1=NS(=O)(=O)c2cc(Cl)ccc2N1 [diazoxide]
insulin secretion in the presence of antagonists (inhibitors) ([1]; in the presence of high glucose concentrations (20 mM)): inhibited insulin secretion

CCCCNC(=O)NS(=O)(=O)c1ccc(C)cc1 [tolbutamide]
insulin secretion in response to agonists (secretagogues) [1]: stimulated insulin secretion

LIF: growth factor that prevents differentiation of ES cells; glycosylated 58 kDa protein of 179 amino acids
PDX-1 positive cells / pancreatic precursor cells (ES cell cultures; [2]): negatively regulates; also recorded: Only few | expression of EN-1 / midbrain precursor cells (En-1+ cells) (ES cell cultures; [2]): efficiently enhances; also recorded: increases | EN-1 positive cells, share of total ES cell-derived cell population (ES cell cultures; at stage 4, LIF present at stage 2): up to 80% | yield of neurons / neuronal (TuJ1+) population (ES cell cultures; at stage 5, LIF at stage 2 (EB formation)): increased | astrocytic (GFAP+) population (ES cell cultures; day 8 in stage 5, LIF at stage 2 (EB formation)): decreases
